Assay [1] deals with Cryptococcus neoformans cell lysis, plate reader. Put plainly: Cryptococcus neoformans cell lysis induction, dose response, plate reader, dry powder, set 2 (AID 743305).
Experiment in assay [2]: as above
Conditions: Cryptococcus neoformans cell lysis, plate reader; at 35 µM (top of the series).

In general, AC50 refers to the concentration giving half of the maximal activity seen.

Where “and” joins values, the source holds several entries; their conditions need not be identical. Equal entries are not always repeated. Calls of active or inactive are those of the source. How the calls were made is not given here.

In the case of `CC(C)Oc1ccc(OCCn2cnc3ccccc32)cc1`, in assay [1], the AC50 is 24.3 µM.
As to `O=S(=O)(c1ccc(OCCn2cnc3ccccc32)cc1)N1CCOCC1`, the activity change, negative = lysis in assay [2] is -16.9% (inactive).
As to `NCC(=O)Nc1ccc(-n2nc(C(F)(F)F)cc2-c2ccc3c(ccc4ccccc43)c2)cc1`, the AC50 in assay [1] was 10.7 µM.
On the same count and under the same terms, to `CC(C)Oc1ccc(OCCn2c(=S)[nH]c3ccccc32)cc1` belongs 12.1 µM.
With `c1ccc(COc2ccc(OCCn3cnc4ccccc43)cc2)cc1`, the AC50 in assay [1] was 24.4 µM.
Still for that read-out and setting: to `Cc1cc2ncn(CCOc3ccc4c(c3)CCC4)c2cc1C` belongs 3.63 µM.
For `Cc1ccc(C(C)C)c(OCCn2c(=S)[nH]c3ccccc32)c1`, the AC50 in assay [1] was 3.96 µM.
Still for that read-out and setting: as for `CC(C)Oc1cccc(OCCn2cnc3ccccc32)c1`, the figure is 13.3 µM.
Take `CS(=O)(=O)c1ccc(OCCn2cnc3ccccc32)cc1`: in assay [2], the activity change, negative = lysis was -6.3% (inactive).
Consider `CC(C)(C)c1ccc(OCCn2cnc3ccccc32)c(Cl)c1`, for which the AC50 in assay [1] was 10.1 µM.
As to `CSc1nc2ccccc2n1CCOc1ccc(C)cc1`, in assay [1], the AC50 is 17.7 µM.
In the case of `COc1ccccc1OCCn1c(=S)[nH]c2ccccc21`, the activity change, negative = lysis in assay [2] was -5.77% (inactive).
For `CC(C)(C)c1ccc(OCCn2cnc3ccccc32)cc1`, in assay [1], the AC50 is 11 µM.
As for `Cc1ccc(OCCn2cnc3ccccc32)c(C(C)C)c1`, the AC50 in assay [1] is 32.8 µM.
Consider `Cc1cc2ncn(CCOc3ccccc3)c2cc1C`, for which the AC50 in assay [1] is 14.9 µM.
Same read-out and setting: to `CCCc1nc2ccccc2n1CCOc1ccccc1` belongs 35.7 µM; to `CC(C)c1ccccc1NCCn1c(=S)[nH]c2ccccc21`, > 70 µM (inactive).
Turning to `Fc1cccc2c1[nH]c(=S)n2CCOc1ccccc1`, the AC50 in assay [1] is 13.9 µM.
The same measure, in the same setting: as for `Clc1ccc(OCCn2cnc3ccccc32)c(Cl)c1`, the figure is 11.8 µM.
On to `Cc1ccc(C(C)C)c(OCCn2c(=O)[nH]c3ccccc32)c1`, for which the AC50 in assay [1] is > 70 µM (inactive).
Same read-out and setting: as for `S=c1[nH]c2cccc(Cl)c2n1CCOc1ccccc1`, the figure is 2.95 µM.
The same measure, in the same setting: as for `FC(F)(F)c1cccc(OCCn2cnc3ccccc32)c1`, the figure is 29.7 µM.
For `Cc1cccc(OCCn2cnc3ccccc32)c1`, the AC50 in assay [1] was 34.1 µM.
On the same count and under the same terms, as for `c1ccc2c(c1)ncn2CCOc1ccc2c(c1)CCC2`, the figure is 3.3 µM; as for `CC(C)c1ccccc1OCCn1c(=S)[nH]c2ccccc21`, 4.7 µM; as for `Cc1ccc(OCCn2cnc3cc(C)c(C)cc32)cc1`, 5.54 µM.
On to `Clc1ccc(OCCn2cnc3ccccc32)cc1`, for which the AC50 in assay [1] was 29 µM.
Consider `c1ccc(-c2ccc(OCCn3cnc4ccccc43)cc2)cc1`, for which the activity change, negative = lysis in assay [2] is -7.29% (inactive).
In the case of `Cc1cccc(OCCn2c(=S)[nH]c3ccc(C(F)(F)F)cc32)c1`, the AC50 in assay [1] is > 70 µM (inactive).
On to `CCCCc1nc2ccccc2n1CCOc1ccccc1`, for which, in assay [1], the AC50 is 24.3 µM.
Same read-out and setting: as for `Cc1ccc(C(C)C)c(OCCn2c(N)nc3ccccc32)c1`, the figure is 21.9 µM.
Take `CCc1nc2ccccc2n1CCOc1ccccc1`: the activity change, negative = lysis in assay [2] was -12.5% (inactive).
On to `CCSc1nc2ccccc2n1CCOc1ccccc1`, for which, in assay [1], the AC50 was 35 µM.
On the same count and under the same terms, as for `COCc1nc2ccccc2n1CCOc1ccc(C(C)(C)C)cc1`, the figure is 28.6 µM.
Regarding `Cc1ccc2c(c1)[nH]c(=S)n2CCOc1ccccc1`, the AC50 in assay [1] is 7.79 µM.
With `Cc1ccc(OCCn2cnc3ccccc32)c(C)c1`, the AC50 in assay [1] is 14.6 µM.
As to `Fc1ccc(OCCn2c(=S)[nH]c3ccccc32)cc1`, the AC50 in assay [1] is 36.6 µM.
As to `COc1ccc(OCCn2cnc3ccccc32)cc1`, in assay [2], the activity change, negative = lysis is -13.3% (inactive).
Take `OCc1nc2ccccc2n1CCOc1ccccc1`: the activity change, negative = lysis in assay [2] is -11.6% (inactive).
`CSc1nc2ccccc2n1CCOc1ccccc1`: the AC50 in assay [1] was 29.5 µM.
On the same count and under the same terms, to `Cc1cc2ncn(CCOc3ccccc3C)c2cc1C` belongs 8.4 µM; to `S=c1[nH]c2cc(Cl)ccc2n1CCOc1ccccc1`, 36 µM.
The same measure, in the same setting: as for `Cc1cccc(OCCn2c(=S)[nH]c3ccccc32)c1`, the figure is 8.47 µM; as for `Cc1cccc(OCCn2c(=S)[nH]c3cc(F)ccc32)c1`, 6.33 µM and 6 µM; as for `Cc1ccc(C(C)C)c(OCCn2c(NC#N)nc3ccccc32)c1`, > 70 µM (inactive).
As to `Fc1ccc2c(c1)[nH]c(=S)n2CCOc1ccccc1`, the AC50 in assay [1] was 12.4 µM and 15.5 µM.
The same measure, in the same setting: to `Cc1cccc(OCCn2c(=S)[nH]c3c(F)cccc32)c1` belongs 8.18 µM and 7.2 µM; to `Cc1ccc(C(C)C)c(OCCn2c(CO)nc3ccccc32)c1`, > 70 µM (inactive).

The record behind these values is PubChem BioAssay AID743305 (Broad Institute, 2014).
